# Measurements reported in patent publication US8217035B2, “Pyrimidine derivatives used as PI-3-kinase inhibitors” (Novartis AG, priority 2006, dated 2012).
# Where two headings read alike, the source gives them in different places.
# Molecular target: PI3 kinase alpha (Homo sapiens, UniProt P42336)
# Experiment: PI3K ATP depletion assay (Biological Method 1, Assay 3; KinaseGlo luminescence)
# Format: biochemical
# Description: The PI3 kinase alpha IC50 values shown in Table 1 were determined according to the ATP depletion assay as disclosed herein in Biological Method 1.
# Assay 3: ATP Depletion Assay
# Compounds to be tested are dissolved in DMSO and directly distributed into a black 384-well plate at 1.25 μL per well. To start the reaction, 25 μL of 10 nM PI3 kinase and 5 μg/mL 1-alpha-phosphatidylinositol (PI) are added into each well followed by 25 μL of 2 μM ATP. The reaction is performed until approx 50% of the ATP is depleted, and then stopped by the addition of 25 μL of KinaseGlo solution purchased from Promega. The stopped reaction is incubated for 5 minutes and the remaining ATP is then detected via luminescence.
# [1] = ATP depletion assay, Biological Method 1, read-out: PI3 Kinase Alpha, IC50
# [2] = ATP depletion assay, read-out: PI3 Kinase Alpha, IC50
# PI3 kinase alpha, sequence (P42336 whole entry): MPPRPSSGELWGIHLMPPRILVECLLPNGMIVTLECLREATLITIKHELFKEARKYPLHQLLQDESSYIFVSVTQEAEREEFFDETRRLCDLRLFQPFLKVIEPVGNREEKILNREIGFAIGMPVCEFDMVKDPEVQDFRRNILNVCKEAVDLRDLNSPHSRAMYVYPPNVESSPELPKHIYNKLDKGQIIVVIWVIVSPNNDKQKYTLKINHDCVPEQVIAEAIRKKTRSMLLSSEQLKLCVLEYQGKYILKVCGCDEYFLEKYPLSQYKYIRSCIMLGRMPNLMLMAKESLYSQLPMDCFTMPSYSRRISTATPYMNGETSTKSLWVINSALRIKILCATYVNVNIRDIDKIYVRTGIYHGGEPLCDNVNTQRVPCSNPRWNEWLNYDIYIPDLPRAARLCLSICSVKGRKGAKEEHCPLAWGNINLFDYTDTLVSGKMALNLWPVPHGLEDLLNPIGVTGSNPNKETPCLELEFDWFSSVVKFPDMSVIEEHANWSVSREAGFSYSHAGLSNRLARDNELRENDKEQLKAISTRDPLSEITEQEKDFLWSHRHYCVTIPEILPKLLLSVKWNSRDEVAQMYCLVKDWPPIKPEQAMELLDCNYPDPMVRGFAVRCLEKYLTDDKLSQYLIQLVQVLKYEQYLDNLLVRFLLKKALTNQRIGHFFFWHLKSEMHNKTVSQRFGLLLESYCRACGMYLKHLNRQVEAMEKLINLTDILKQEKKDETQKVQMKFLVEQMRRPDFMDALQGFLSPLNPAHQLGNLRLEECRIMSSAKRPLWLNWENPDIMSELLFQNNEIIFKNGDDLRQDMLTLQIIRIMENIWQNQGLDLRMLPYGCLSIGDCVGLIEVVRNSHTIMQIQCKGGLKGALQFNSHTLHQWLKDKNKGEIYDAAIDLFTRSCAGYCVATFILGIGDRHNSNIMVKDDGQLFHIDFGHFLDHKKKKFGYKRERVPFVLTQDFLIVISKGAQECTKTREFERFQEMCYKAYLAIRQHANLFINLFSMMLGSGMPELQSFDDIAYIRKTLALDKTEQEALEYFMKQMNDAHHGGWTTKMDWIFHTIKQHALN
# PI3 kinase alpha, sequence (P27986 whole entry partner): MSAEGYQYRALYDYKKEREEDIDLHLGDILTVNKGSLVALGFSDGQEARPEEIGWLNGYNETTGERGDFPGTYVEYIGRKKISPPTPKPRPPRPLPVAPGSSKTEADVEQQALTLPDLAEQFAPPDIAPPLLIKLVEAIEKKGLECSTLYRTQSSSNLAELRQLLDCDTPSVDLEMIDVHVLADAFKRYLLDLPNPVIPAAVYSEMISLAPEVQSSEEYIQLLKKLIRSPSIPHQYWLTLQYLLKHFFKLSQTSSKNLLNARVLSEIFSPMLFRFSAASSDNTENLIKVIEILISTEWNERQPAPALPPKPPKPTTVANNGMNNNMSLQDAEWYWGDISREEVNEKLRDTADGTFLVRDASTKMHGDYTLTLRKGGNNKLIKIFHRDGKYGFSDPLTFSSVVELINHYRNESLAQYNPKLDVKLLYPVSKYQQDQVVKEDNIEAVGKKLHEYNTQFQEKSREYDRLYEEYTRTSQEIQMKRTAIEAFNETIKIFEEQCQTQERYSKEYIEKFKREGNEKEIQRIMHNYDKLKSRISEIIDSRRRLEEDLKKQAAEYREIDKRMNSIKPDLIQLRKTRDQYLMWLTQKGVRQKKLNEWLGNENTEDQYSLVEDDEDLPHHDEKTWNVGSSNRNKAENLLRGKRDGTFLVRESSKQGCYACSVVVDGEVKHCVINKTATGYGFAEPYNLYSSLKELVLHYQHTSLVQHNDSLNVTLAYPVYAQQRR
IC50 [1],IC50 [2],Structure (SMILES),other results
< 1000 nM,–,Nc1ccc(-c2cc(N3CCCc4ccccc43)nc(N3CCOCC3)n2)cn1 [Compound 382],–
–,< 1000 nM,CS(=O)(=O)c1cccc(-c2cc(-c3cnc(N)cc3-c3nn[nH]n3)nc(N3CCOCC3)n2)c1 [Compound 414],–
–,< 10000 nM,CC(C)C(=O)N1CC[C@H](Oc2cc(-c3cnc(N)cc3C(F)(F)F)nc(N3CCOCC3)n2)C1 [Compound 533],–
< 1000 nM,–,Nc1ccc(-c2cc(N3CCc4ccccc4C3)nc(N3CCOCC3)n2)cn1 [Compound 375],–
–,< 1000 nM,Nc1cc(C(F)(F)F)c(-c2cc(N3CCOCC3c3ccccc3)nc(N3CCOCC3)n2)cn1 (stereo not shown) [Compound 486],–
–,< 10000 nM,Nc1ccc(-c2cc(NCCc3cccnc3)nc(N3CCOCC3)n2)cn1 [Compound 434],–
< 10000 nM,–,CN1CCC(Oc2ncccc2-c2cc(-c3ccc(N)nc3)nc(N3CCOCC3)n2)C1 (stereo not shown) [Compound 288],–
< 1000 nM,–,NC(=O)c1cc(-c2cnc(N)nc2)nc(N2CCOCC2)n1 [Compound 229],–
–,< 10000 nM,Nc1ncc(-c2nc(N3CCOCC3)ncc2C(=O)NCC2CCCO2)cn1 (stereo not shown) [Compound 421],–
–,< 1000 nM,CC(=O)N1CC[C@@H](Oc2cc(-c3cnc(N)cc3C(F)(F)F)nc(N3CCOCC3)n2)C1 [Compound 23],–
< 1000 nM,–,Nc1ccc(-c2cc(N3CCOC(c4cccnc4)C3)nc(N3CCOCC3)n2)cn1 (stereo not shown) [Compound 340],–
< 1000 nM,–,Nc1cc(C(F)(F)F)c(-c2cc(N3CCOC4(CCCC4)C3)nc(N3CCOCC3)n2)cn1 [Compound 319],–
< 1000 nM,–,Nc1ccc(-c2cc(Nc3cnccc3C(F)(F)F)nc(N3CCOCC3)n2)cn1 [Compound 385],–
–,< 1000 nM,COc1ccc(Nc2cc(-c3ccc(N)nc3)nc(N3CCOCC3)n2)cn1 [Compound 2],–
< 10000 nM,–,Nc1ccc(-c2cc(N3CCNC(=O)C3)nc(N3CCOCC3)n2)cn1 [Compound 376],–
< 10000 nM,–,Nc1ccc(-c2cc(NC3CCOCC3)nc(N3CCOCC3)n2)cn1 [Compound 374],–
–,< 10000 nM,Nc1ccc(-c2cc(NCCc3ccccn3)nc(N3CCOCC3)n2)cn1 [Compound 433],–
–,< 10000 nM,Nc1ccc(-c2cc(-c3cccnc3N3CCN(CCO)CC3)nc(N3CCOCC3)n2)cn1 [Compound 498],–
–,< 10000 nM,Nc1ncc(-c2nc(N3CCOCC3)ncc2C(=O)NCC2CC2)cn1 [Compound 419],–
< 1000 nM,–,Nc1ccc(-c2cc(Nc3cccc4c3OCCO4)nc(N3CCOCC3)n2)cn1 [Compound 389],–

IC50 [1],IC50 [2],Structure (SMILES),other results
–,< 10000 nM,Nc1ncc(-c2nc(N3CCOCC3)ncc2C(=O)NC2CCOCC2)cn1 [Compound 426],–
–,< 10000 nM,CN(C)CCNC(=O)c1cnc(N2CCOCC2)nc1-c1cnc(N)nc1 [Compound 420],–
< 1000 nM,–,Nc1ccc(-c2cc(Nc3ccccc3C(F)(F)F)nc(N3CCOCC3)n2)cn1 [Compound 379],–
< 10000 nM,–,Nc1ncc(-c2cc(Nc3cnc4ccccc4c3)nc(N3CCOCC3)n2)cc1S(N)(=O)=O [Compound 222],–
< 10000 nM,–,CN(c1cc(-c2ccc(N)nc2)nc(N2CCOCC2)n1)C1CCCCC1 [Compound 372],–
< 10000 nM,–,Cc1cc(-c2cc(Nc3cnc4ccccc4c3)nc(N3CCOCC3)n2)cnc1N [Compound 365],–
< 10000 nM,–,CN(C)c1cc(-c2ccc(N)nc2)nc(N2CCOCC2)n1 [Compound 370],–
< 1000 nM,–,Nc1ncc(-c2cc(C(=O)O)nc(N3CCOCC3)n2)cn1 [Compound 236],–
–,< 1000 nM,Nc1ccc(-c2ccnc(N3CCOCC3)n2)cn1 [Compound 513],–
< 1000 nM,–,Nc1ncc(-c2cc(Nc3cnc4ccccc4c3)nc(N3CCOCC3)n2)c(OCCN2CCNCC2)n1 [Compound 272],–
–,< 1000 nM,Nc1ccc(-c2cc(NCc3ccncc3)nc(N3CCOCC3)n2)cn1 [Compound 443],–
–,< 1000 nM,Nc1cc(C(F)(F)F)c(-c2cc(CNC(=O)OC3CCOC3)nc(N3CCOCC3)n2)cn1 (stereo not shown) [Compound 542],–
–,< 1000 nM,Nc1ncc(-c2cc(O[C@@H]3CCCN(C(=O)c4ccc(F)cc4)C3)nc(N3CCOCC3)n2)c(N)n1 [Compound 525],–
< 1000 nM,–,Nc1ncc(-c2cc(N3CCC(C(F)(F)F)CC3)nc(N3CCOCC3)n2)cn1 [Compound 391],–
< 1000 nM,–,Nc1ccc(-c2cc(NC(=O)c3cccnc3)nc(N3CCOCC3)n2)cn1 [Compound 297],–
–,< 1000 nM,CC(C)N1CCN(c2ccc(-c3cc(-c4ccc(N)nc4)nc(N4CCOCC4)n3)cn2)CC1 [Compound 507],–
–,< 10000 nM,Nc1ncc(-c2nc(N3CCOCC3)ncc2C(=O)N2CCOCC2)cn1 [Compound 429],–
< 1000 nM,–,Nc1ccc(-c2cc(NC(=O)C3CCCCC3)nc(N3CCOCC3)n2)cn1 [Compound 298],–
–,< 1000 nM,Nc1cc(C(F)(F)F)c(-c2cc(OC3CCNCC3)nc(N3CCOCC3)n2)cn1 [Compound 459],–
< 10000 nM,–,Nc1ccc(-c2cc(Sc3nc[nH]n3)nc(N3CCOCC3)n2)cn1 [Compound 292],–

IC50 [1],IC50 [2],Structure (SMILES),other results
< 1000 nM,–,Nc1ccc(-c2cc(-c3c[nH]nn3)nc(N3CCOCC3)n2)cn1 [Compound 310],–
–,< 1000 nM,Nc1ccc(-c2cc(Nc3cnc4ccc(OC(F)(F)F)cc4c3)nc(N3CCOCC3)n2)cn1 [Compound 496],–
–,< 1000 nM,CC(C)OC(=O)N1CC[C@@H](Oc2cc(-c3cnc(N)cc3C(F)(F)F)nc(N3CCOCC3)n2)C1 [Compound 538],–
< 1000 nM,–,Nc1ccc(-c2cc(-c3ccc(F)nc3)nc(N3CCOCC3)n2)cn1 [Compound 228],–
< 10000 nM,–,CC(=O)Nc1cnc(N2CCOCC2)nc1-c1ccc(N)nc1 [Compound 257],–
–,< 1000 nM,Nc1cc(C(F)(F)F)c(-c2cc(N3CCC(F)CC3)nc(N3CCOCC3)n2)cn1 [Compound 487],–
< 1000 nM,–,Nc1ccc(-c2cc(Nc3ccc4c(c3)NC(=O)CO4)nc(N3CCOCC3)n2)cn1 [Compound 381],–
–,< 1000 nM,CC(C)C(=O)N1CC[C@@H](Oc2cc(-c3cnc(N)cc3C(F)(F)F)nc(N3CCOCC3)n2)C1 [Compound 537],–
< 10000 nM,–,Cn1cnnc1Sc1cc(-c2ccc(N)nc2)nc(N2CCOCC2)n1 [Compound 293],–
–,< 1000 nM,Nc1ncc(-c2cc(N[C@@H]3CCC[C@H]3OCc3ccccc3)nc(N3CCOCC3)n2)cn1 [Compound 398],–
–,< 1000 nM,Nc1ccc(-c2cc(NCc3ccccn3)nc(N3CCOCC3)n2)cn1 [Compound 444],–
–,< 10000 nM,Nc1ncc(-c2nc(N3CCOCC3)ncc2C(=O)O)cn1 [Compound 430],–
< 10000 nM,–,Nc1ccc(-c2cc(NC3CCCCC3)nc(N3CCOCC3)n2)cn1 [Compound 373],–
< 1000 nM,–,CC(=O)Nc1cnc(N2CCOCC2)nc1-c1cnc(N)nc1 [Compound 256],–
–,–,Cc1c(Nc2cnc3ccccc3c2)nc(N2CCOCC2)nc1-c1cnc(N)cc1C(F)(F)F [Compound 469],IC50: < 1000 nM
< 1000 nM,–,Nc1ccc(-c2cc(Nc3ccccc3-n3ccnc3)nc(N3CCOCC3)n2)cn1 [Compound 355],–
–,< 10000 nM,Nc1ncc(-c2nc(N3CCOCC3)ncc2C(=O)N2CCCC2)cn1 [Compound 425],–
< 10000 nM,–,Nc1ccc(-c2cc(C(=O)N3CCNCC3)nc(N3CCOCC3)n2)cn1 [Compound 224],–
< 1000 nM,–,Nc1cc(C(F)(F)F)c(-c2cc(Nc3cc(C(F)(F)F)ccn3)nc(N3CCOCC3)n2)cn1 [Compound 243],–
< 1000 nM,–,COc1ccc(Nc2cc(-c3ccc(N)nc3)nc(N3CCOCC3)n2)cc1OC [Compound 388],–

Structure (SMILES),IC50 [1],IC50 [2],other results
Nc1ncc(-c2cc(N[C@H]3CN4CCC3CC4)nc(N3CCOCC3)n2)cn1 [Compound 519],–,< 1000 nM,–
